The subject of the test is Human TLR7/8. Put plainly: Human PBMC cell-based assay, TLR7/8 stimulus (RNA-Ig), cytokine ELISA. The settings on record: primary human PBMC assay, TLR7/8 potency; ligand not given; read-out: Human PBMCs IC50. As for the experimental part:
Human PBMC Cell-Based Assay. Human peripheral blood mononuclear cells (PBMC) were isolated from freshly-drawn heparinized (10 USP units/ml, Hospira, Lakeforest, Ill.) healthy donor whole blood by density gradient (Histopaque® 1077, Sigma, Inc., St. Louis, Mo.). Briefly, 25 ml blood was diluted with 15 ml PBS (without Ca^2+, Mg^2+) in a 50 ml conical tube, and 12 ml Histopaque was underlaid using a spinal needle. Tubes were centrifuged for 45 minutes at 1200 rpm (350×g), and PBMC were collected from the buffy coat. Cells were then washed twice in PBS, and red blood cells were lysed by suspension in 5 ml ammonium chloride solution (1× Red Blood Cell Lysis Buffer, eBioscience) for 5 minutes at room temperature. After a final wash in PBS, PBMC were resuspended at a final concentration of 2×10^6/ml in RPMI-1640 media with L-glutamine (Invitrogen) and supplemented with 25 mM HEPES (Mediatech, Inc, Manassas Va.), 10% fetal bovine serum (HyClone, Logan, Utah), and Penicillin-Streptomycin-Glutamine (Mediatech) and plated at 100 ul/well (2×10^5 cells/well) in tissue culture treated 96-well plates (Falcon).
Antagonist compounds solubilized and serial diluted in 100% DMSO were added in triplicate to cells to yield a final concentration of 0.1% DMSO (v/v). Hydroxychloroquine (Acros Organics) solubilized and serial diluted in PBS was added in triplicate to cells. PBMC were incubated with antagonist compounds or HCQ for 30 minutes at 37° C., 5% CO2 before adding various TLR agonist reagents in 100 ul complete media per well as follows (final concentrations indicated): R848 (Resiquimod; GLSynthesis, Worcester, Mass.) at 1 uM for TLR7 and TLR8, LPS (Sigma) at 10 ng/ml for TLR4, and CpG-2216 (InvivoGen) at 5 ug/ml for TLR9. To prepare a TLR7/8 agonist that mimics RNA-containing auto-antibody immune complexes in lupus patients, a 26-mer RNA with a sequence derived from human U1 snRNA stem loop IV [(sequence: […]-[…] (SEQ ID NO: 2) with phosphorothioate backbone] was synthesized (Dharmacon, Inc., Lafayette, Colo.), which has been shown previously to be a potent TLR7 and TLR8 agonist. This RNA molecule was diluted to 2.5 μM in serum-free RPMI, and mouse anti-human single stranded DNA monoclonal antibody (MAB3034, Millipore, Inc., Billerica, Mass.), which also cross-reacts with RNA, was added at a 1:25 dilution or at 1 ug/ml. The resulting “RNA-Ig” stimulus was incubated at room temperature for 15-30 minutes before adding to cells. PBMC were incubated with the various TLR agonists for 20 hours at 37° C., 5% CO2. Cell culture supernatants were collected, and levels of various human cytokines were assessed as indicated by standard ELISA procedure according to the manufacturer's recommended protocol (BD Biosciences, Inc., San Diego, Calif.). In a subsequent assay (Table 6) the ability of ER-899742 to block stimulation of normal PBMC by various TLR7/8 ligands, but not DNA-mediated activation of TLR9, was examined. In this assay cells were plated at 1×10^5 cells/well in 100 ul in 96-well plates.
On the technique in general: ELISA stands for enzyme-linked immunosorbent assay.

Some results are limits rather than exact numbers.

In general, IC50 refers to the concentration that gives 50% inhibition. Regarding `C[C@@H]1CN(c2ccc(C#N)c3ncccc23)C[C@H](CN2CCNC(=O)[C@H]2C)O1` [ER-894483], the half-inhibitory concentration (IC50) came out at 209 nM.

In the case of `C[C@@H]1CN(c2ccc(C#N)c3ncccc23)C[C@H](CN2CCNC(=O)[C@@H]2C)O1` [ER-894484], the IC50 was determined as 174 nM. The same measure for `CC(=O)N[C@H]1CCN(C[C@H]2CN(c3ccc(C#N)c4ncccc34)C[C@@H](C)O2)C1` [ER-894546]: 69 nM; for `CC(C)C(=O)N[C@H]1CCN(C[C@H]2CN(c3ccc(C#N)c4ncccc34)C[C@@H](C)O2)C1` [ER-894547]: 12 nM; for `C[C@@H]1CN(c2ccc(C#N)c3ncccc23)C[C@H](CN2CC[C@H](NC(=O)c3ccccc3)C2)O1` [ER-894548]: 28 nM. With `C[C@@H]1CN(c2ccc(C#N)c3ncccc23)C[C@H](CN2CC[C@H](N(C)C)C2)O1` [ER-894549], the IC50 amounted to 14 nM. For the compound `CC1CN(c2ccc(C#N)c3ncccc23)CC(COc2cnccn2)O1` (centres unmarked) [ER-894552], the IC50 is 17 nM.

For `CC1CN(c2ccc(C#N)c3ncccc23)CC(C(C)O)O1` (centres unmarked) [ER-895200], the IC50 stood at 26 nM. Regarding `CC1CN(c2ccc(C#N)c3ncccc23)CC(C(C)O)O1` (centres unmarked) [ER-895310], the IC50 was determined as 34 nM. The same measure for `CC1CN(c2ccc(C#N)c3ncccc23)CC(COc2ccccn2)O1` (centres unmarked) [ER-895324]: 1 nM; for `CC1CN(c2ccc(C#N)c3ncccc23)CC(C(N)=O)O1` (centres unmarked) [ER-895472]: 161 nM; for `CC1CN(c2ccc(C#N)c3ncccc23)CC(C(=O)N2CCC(N3CCCCC3)CC2)O1` (centres unmarked) [ER-895477]: 13 nM. For the compound `COCCNC(=O)C1CN(c2ccc(C#N)c3ncccc23)CC(C)O1` (centres unmarked) [ER-897385], the IC50 was found to be 142 nM. The figure for `CC(O)CNC(=O)C1CN(c2ccc(C#N)c3ncccc23)CC(C)O1` (centres unmarked) [ER-897445] is 104 nM. Consider `CC(CO)NC(=O)C1CN(c2ccc(C#N)c3ncccc23)CC(C)O1` (centres unmarked) [ER-897446], for which the IC50 came to 53 nM. The same measure for `CC(CO)NC(=O)C1CN(c2ccc(C#N)c3ncccc23)CC(C)O1` (centres unmarked) [ER-897447]: 100 nM; for `CCC(CO)NC(=O)C1CN(c2ccc(C#N)c3ncccc23)CC(C)O1` (centres unmarked) [ER-897827]: 39 nM; for `CC1CN(c2ccc(C#N)c3ncccc23)CC(C(=O)NC(CO)C(C)C)O1` (centres unmarked) [ER-897828]: 21 nM.

For the compound `CCC(O)CNC(=O)C1CN(c2ccc(C#N)c3ncccc23)CC(C)O1` (centres unmarked) [ER-897922], the IC50 is 64 nM. The figure for `CC1CN(c2ccc(C#N)c3ncccc23)CC(C(=O)NC2CCCCC2O)O1` (centres unmarked) [ER-897938] is 16 nM. Regarding `CC1CN(c2ccc(C#N)c3ncccc23)CC(C(=O)NC(CO)C(C)(C)C)O1` (centres unmarked) [ER-897940], the IC50 amounted to 21 nM. As for `CC1CN(c2ccc(C#N)c3ncccc23)CC(C(=O)NCC2CN(C)CCO2)O1` (centres unmarked) [ER-897945], the IC50 was 2 nM. The same measure for `CC1CN(c2ccc(C#N)c3ncccc23)CC(C(=O)NC2CNC2)O1` (centres unmarked) [ER-897964]: 20 nM; for `CC1CN(c2ccc(C#N)c3ncccc23)CC(C(=O)NC2CCNC2)O1` (centres unmarked) [ER-897965]: 10 nM. The figure for `CC1CN(c2ccc(C#N)c3ncccc23)CC(C(=O)NC2CCCNC2)O1` (centres unmarked) [ER-897967] is 13 nM. The figure for `CC1CN(c2ccc(C#N)c3ncccc23)CC(C(=O)NCC(F)(F)F)O1` (centres unmarked) [ER-898563] is 122 nM; for `CC1CN(c2ccc(C#N)c3ncccc23)CC(C(=O)NCCC(F)(F)F)O1` (centres unmarked) [ER-898565] it is 198 nM. Take `CC1CN(c2ccc(C#N)c3ncccc23)CC(C(=O)NCC2CN(C)CCO2)O1` (centres unmarked) [ER-898707]: the half-inhibitory concentration (IC50) turned out to be 2 nM. For `CC1CN(c2ccc(C#N)c3ncccc23)CC(C(=O)NCCF)O1` (centres unmarked) [ER-898914], the IC50 was found to be 168 nM. For `CC1CN(c2ccc(C#N)c3ncccc23)CC(C(=O)Nc2ccnn2C)O1` (centres unmarked) [ER-898919], the IC50 is 55 nM. `C[C@@H]1CN(c2ccc(C#N)c3ncccc23)C[C@H](C(=O)NC2(C#N)CC2)O1` [ER-898921]: the IC50 turned out to be 302 nM. The figure for `CC1CN(c2ccc(C#N)c3ncccc23)CC(C(=O)Nc2ncns2)O1` (centres unmarked) [ER-898922] is over 1000 nM.
